Molecular target: T1, ME (malic enzyme) (Escherichia coli, UniProt P26616, L301R/Q392C, form not given)
T1 construct: gene maeA; C-terminal His6 tag kept; expressed in E. coli BW14329 from pTrc99K; crude lysate
Test: formazan (MTT/phenazine ethosulfate) absorbance at […] nm, crude lysate
Assay type: biochemical
Conditions: 0.05 mM NCD; 5.0 mM L-malate; 50 mM HEPES pH 7.5; 10 mM MgCl2; room temperature

T1 sequence (P26616 whole entry L301R/Q392C, form open): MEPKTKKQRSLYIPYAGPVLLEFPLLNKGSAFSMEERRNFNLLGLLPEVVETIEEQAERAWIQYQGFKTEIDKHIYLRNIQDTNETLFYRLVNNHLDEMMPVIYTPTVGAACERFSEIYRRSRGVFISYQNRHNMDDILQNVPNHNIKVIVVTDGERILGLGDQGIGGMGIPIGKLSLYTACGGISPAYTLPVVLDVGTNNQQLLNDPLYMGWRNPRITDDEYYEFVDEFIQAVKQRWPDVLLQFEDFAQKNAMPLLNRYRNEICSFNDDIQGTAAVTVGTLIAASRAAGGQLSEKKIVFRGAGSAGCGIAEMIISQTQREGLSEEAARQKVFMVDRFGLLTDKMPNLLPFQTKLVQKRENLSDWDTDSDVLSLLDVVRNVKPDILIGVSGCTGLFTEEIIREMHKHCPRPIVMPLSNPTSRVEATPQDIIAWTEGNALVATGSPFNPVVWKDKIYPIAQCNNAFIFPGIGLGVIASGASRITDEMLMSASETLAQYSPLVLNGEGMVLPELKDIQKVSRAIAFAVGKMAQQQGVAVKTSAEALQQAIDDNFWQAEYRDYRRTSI

SMILES: NC(=O)c1ccc[n+]([C@@H]2O[C@H](COP(=O)(O)OP(=O)(O)OC[C@H]3O[C@@H](n4ccc(N)nc4=O)[C@H](O)[C@@H]3O)[C@@H](O)[C@H]2O)c1 [NCD]
- formazan (MTT/phenazine ethosulfate) absorbance at 570 nm, crude lysate: ME* or ME-NCD, activity of ME* or ME toward NCD

Source: article PMC9304416, “A phosphite-based screening platform for identification of enzymes favoring nonnatural cofactors” (Scientific Reports, 2022)
